This note sets out measurements from ChEMBL document CHEMBL1138618, “NMDA receptor affinities of 1,2-diphenylethylamine and 1-(1,2-diphenylethyl)piperidine enantiomers and of related compounds” (Bioorg Med Chem, 2009).

A word on the Ki: it is a measure of affinity in units of concentration, obtained from inhibition or displacement.

The assay has as its target Glutamate NMDA receptor. The assay can be described thus: Displacement of [3H]MK801 from NMDA receptor in rat brain neuronal membrane. The class given is cell membranes. In general terms: In a radioligand displacement assay an active substance lowers the binding of a labelled ligand.

As for `NCC(c1ccccc1)c1ccccc1`, the Ki (read-out: Ki) was found to be 145 µM. Regarding `COc1ccc2c(c1)[C@]13CCCC[C@@H]1[C@H](C2)NCC3`, the Ki (read-out: Ki) came out at 1.7 µM.

As to `C[C@@H](N)c1ccccc1`, for the setting “read-out: Ki”, the Ki stood at 659 µM. As to `C[C@H](N)c1ccccc1`, where the note is “read-out: Ki”, the Ki was determined as 622 µM.

Take `N[C@H](c1ccccc1)[C@H](N)c1ccccc1`: under “read-out: Ki”, the Ki was 4.12 µM.

`N[C@@H](c1ccccc1)[C@H](O)c1ccccc1`: under “read-out: Ki”, the Ki was found to be 142 µM. On to `N[C@H](CC1CCCCC1)C1CCCCC1`, for which, where the note is “read-out: Ki”, the Ki stood at 138 µM. `C[C@](N)(Cc1ccccc1)c1ccccc1`: the Ki (read-out: Ki) is 0.79 µM. Same read-out and setting: to `N[C@@H](Cc1ccccc1)c1ccccc1` belongs 0.7 µM; to `C[C@@](N)(Cc1ccccc1)c1ccccc1`, 8.08 µM; to `N[C@H](c1ccccc1)[C@@H](O)c1ccccc1`, 15.7 µM. `c1ccc(C[C@H](c2ccccc2)N2CCCCC2)cc1`: the Ki (read-out: Ki) is 5.25 µM. In the case of `N[C@H](Cc1ccccn1)c1ccccc1`, the Ki (read-out: Ki) stood at 84 µM.

As for `c1ccc(C[C@@H](c2ccccc2)N2CCCCC2)cc1`, the Ki (read-out: Ki) was found to be 0.12 µM. The same measure, in the same setting: to `N[C@]1(c2ccccc2Cl)CCCCC1=O` belongs 4.18 µM; to `N[C@H](Cc1ccccc1)c1ccccc1`, 25.1 µM; to `N[C@@H](c1ccccc1)[C@@H](N)c1ccccc1`, 51 µM. `N[C@@]1(c2ccccc2Cl)CCCCC1=O`: the Ki (read-out: Ki) was 55 µM. Still for that read-out and setting: to `CN[C@@]1(c2ccccc2Cl)CCCCC1=O` belongs 5.68 µM; to `COC(=O)[C@@H](N)c1ccccc1`, 1980 µM. For the molecule `COC(=O)[C@H](N)c1ccccc1`, the Ki (read-out: Ki) came to 1370 µM. Same read-out and setting: to `N[C@@H](CC1CCCCC1)C1CCCCC1` belongs 271 µM. For `COc1ccc2c(c1)C13CCCC[C@@H]1C(C2)NCC3` (single isomer, unassigned), the Ki result is “Not Active”. For `N[C@H]1C[C@@H]1c1ccccc1` [(+)-TRANYLCYPROMINE], the Ki (read-out: Ki) is 269 µM. In the case of `NC(c1ccccc1)c1ccccc1` [AMINODIPHENYLMETHANE], for the setting “read-out: Ki”, the Ki worked out at 64 µM. The same measure, in the same setting: to `NCc1ccccc1` [BENZYLAMINE] belongs 1060 µM; to `C[C@H](N)Cc1ccccc1` [DEXTROAMPHETAMINE], 300 µM; to `CN[C@]1(c2ccccc2Cl)CCCCC1=O` [ESKETAMINE], 0.96 µM. For `N[C@@H](Cc1ccccn1)c1ccccc1` [LANICEMINE], where the note is “read-out: Ki”, the Ki was 14 µM. Same read-out and setting: to `C[C@@H](N)Cc1ccccc1` [LEVAMFETAMINE] belongs 625 µM; to `c1ccc(C2(N3CCCCC3)CCCCC2)cc1` [PHENCYCLIDINE], 0.27 µM. The same measure, in the same setting: to `NCCc1ccccc1` [PHENETHYLAMINE] belongs 753 µM. On the same count and under the same terms, to `N[C@@H]1C[C@H]1c1ccccc1.N[C@H]1C[C@@H]1c1ccccc1` [TRANYLCYPROMINE] belongs 544 µM.
